# According to patent US5591758A, “Organic nitrates, processes for their preparation and their use in the treatment of cardiovascular diseases” (Laboratoires Hoechst, SA, priority 1991, dated 1997):
# “And” between values parts separate entries of the source, which are not always exact repeats. Identical values can stand only once. Counter-ions that a name gives are not always drawn.
# System: anaesthetised dogs
# Test: Tachyphylaxis model on anaesthetised dogs (repeated i.d. administration)
# Format: in vivo, dogs (labrador/harrier cross)
# Design: Δdp/dt average / ΔBPs / ΔBPd / ΔLVEDP / ΔHR / ΔBPs average / ΔBPd average / ΔLVEDP average / ΔHR average: unit not given here
# Details: for Δdp/dt / ΔBPd / ΔBPs / ΔHR / ΔLVEDP: single dog
# Method: Comparison with isosorbide mononitrate (IS-5-MN).
# The product (46) is tested in a tachyphylaxis model on anaesthetised dogs. IS-5-MN is used as reference substance.
# 8 dogs of each sex, weighing between 16 and 24 kg, are used. These dogs are the progeny of a labrador/harrier cross. Anaesthesia is induced with the aid of sodium pentobarbital (45 mg/kg i.v.) and maintained by i.v. perfusion (flow rate: 8 mg/kg/h). The animals are ventilated, with the aid of a "Bird Mark 7" respirator, using ambient air, and catheterised. […] The arterial blood gases are measured at regular intervals.
# IS-5-MN is also dissolved in water and given i.d. in a dosage of 5 mg/kg in a volume of 10 ml/animal.
# Three hours (in the case of IS-5-MN) or four hours (in the case of (46)) after the first administration, the compounds are readministered in the same dosage and by the same route. The haemodynamic parameter chosen for the study of the tachyphylaxis is the systolic blood pressure (BPs), insofar as this parameter is very sensitive to the administration of the compounds.
# [1] = i.d., IS-5-MN 5 mg/kg, (46) 0.75 mg/kg
# [2] = n = 4, 1st administration, 0.75 mg/kg i.d., 5 min
# [3] = n = 4, 1st administration, 0.75 mg/kg i.d., 10 min
# [4] = n = 4, 1st administration, 0.75 mg/kg i.d., 15 min
# [5] = n = 4, 1st administration, 0.75 mg/kg i.d., 30 min
# [6] = n = 4, 1st administration, 0.75 mg/kg i.d., 60 min
# [7] = n = 4, 1st administration, 0.75 mg/kg i.d., 120 min
# [8] = n = 4, 1st administration, 0.75 mg/kg i.d., 180 min
# [9] = n = 4, 1st administration, 0.75 mg/kg i.d., 240 min
# [10] = n = 4, 2nd administration, 0.75 mg/kg i.d., 5 min
# [11] = n = 4, 2nd administration, 0.75 mg/kg i.d., 10 min
# [12] = n = 4, 2nd administration, 0.75 mg/kg i.d., 15 min
# [13] = n = 4, 2nd administration, 0.75 mg/kg i.d., 30 min
# [14] = n = 4, 2nd administration, 0.75 mg/kg i.d., 60 min
# [15] = n = 4, 2nd administration, 0.75 mg/kg i.d., 120 min
# [16] = 1st administration, 0.75 mg/kg i.d., 5 min, monohydrochloride, 0.75 mg/kg
# [17] = 1st administration, 0.75 mg/kg i.d., 10 min, monohydrochloride, 0.75 mg/kg
# [18] = 1st administration, 0.75 mg/kg i.d., 15 min, monohydrochloride, 0.75 mg/kg
# [19] = 1st administration, 0.75 mg/kg i.d., 30 min, monohydrochloride, 0.75 mg/kg
# [20] = 1st administration, 0.75 mg/kg i.d., 60 min, monohydrochloride, 0.75 mg/kg
# [21] = 1st administration, 0.75 mg/kg i.d., 120 min, monohydrochloride, 0.75 mg/kg
# [22] = 1st administration, 0.75 mg/kg i.d., 180 min, monohydrochloride, 0.75 mg/kg
# [23] = 1st administration, 0.75 mg/kg i.d., 240 min, monohydrochloride, 0.75 mg/kg
# [24] = 2nd administration, 0.75 mg/kg i.d., 5 min
# [25] = 2nd administration, 0.75 mg/kg i.d., 5 min, monohydrochloride, 0.75 mg/kg
# [26] = 2nd administration, 0.75 mg/kg i.d., 10 min
# [27] = 2nd administration, 0.75 mg/kg i.d., 10 min, monohydrochloride, 0.75 mg/kg
# [28] = 2nd administration, 0.75 mg/kg i.d., 15 min, monohydrochloride, 0.75 mg/kg
# [29] = 2nd administration, 0.75 mg/kg i.d., 30 min, monohydrochloride, 0.75 mg/kg
# [30] = 2nd administration, 0.75 mg/kg i.d., 60 min, monohydrochloride, 0.75 mg/kg
# [31] = 2nd administration, 0.75 mg/kg i.d., 120 min, monohydrochloride, 0.75 mg/kg
smiles,measurement,setting,value
"O=C(CNC(=O)[C@@H]1CSCN1)N[C@H]1CO[C@H]2[C@@H]1OC[C@@H]2O[N+](=O)[O-] [Compound 46, 5-[[2-[[(4-L-Thiazolidinyl)carbonyl]amino]-1oxoethyl]amino]-5-deoxy-2-O-nitro-1,4:3,6-dianhydro-L-iditol monohydrochloride]","fall in the BPs, first administration, on average",0.75 mg/kg i.d.,-30 mmHg
same,period of action,"compared with IS-5-MN, first administration",longer
same,development of tachyphylaxis after repeated administration,"dogs, two i.d. administrations",absence of the development of tachyphylaxis
same,maximum fall in the BP after second administration,[1],-33 mmHg
same,time of maximum effect on BPs after first administration,[1],60 min
same,time of maximum fall in the BP after second administration,[1],60 min
same,ΔBPd average,[2],-4
same,ΔBPs average,[2],-5
same,ΔHR average,[2],-1
same,ΔLVEDP average,[2],-0
same,Δdp/dt average,[2],0
same,ΔBPd average,[3],-11
same,ΔBPs average,[3],-18
same,ΔHR average,[3],-1
same,ΔLVEDP average,[3],-2
same,Δdp/dt average,[3],-100
same,ΔBPd average,[4],-16
same,ΔBPs average,[4],-26
same,ΔHR average,[4],-1
same,ΔLVEDP average,[4],-2
same,Δdp/dt average,[4],-125
same,ΔBPd average,[5],-20
same,ΔBPs average,[5],-30
same,ΔHR average,[5],-2
same,ΔLVEDP average,[5],-2
same,Δdp/dt average,[5],-150
same,ΔBPd average,[6],-20
same,ΔBPs average,[6],-33
same,ΔHR average,[6],-8
same,ΔLVEDP average,[6],-3
same,Δdp/dt average,[6],-200
same,ΔBPd average,[7],-20
same,ΔBPs average,[7],-31
same,ΔHR average,[7],-10
same,ΔLVEDP average,[7],-4
same,Δdp/dt average,[7],-250
same,ΔBPd average,[8],-15
same,ΔBPs average,[8],-24
same,ΔHR average,[8],-6
same,ΔLVEDP average,[8],-4
same,Δdp/dt average,[8],-150
same,ΔBPd average,[9],-7
same,ΔBPs average,[9],-12
same,ΔHR average,[9],0
same,ΔLVEDP average,[9],-4
same,Δdp/dt average,[9],25
same,ΔBPd average,[10],-5
same,ΔBPs average,[10],-6
same,ΔHR average,[10],0
same,ΔLVEDP average,[10],0
same,Δdp/dt average,[10],-50
same,ΔBPd average,[11],-6
same,ΔBPs average,[11],-11
same,ΔHR average,[11],0
same,ΔLVEDP average,[11],0
same,Δdp/dt average,[11],-75
same,ΔBPd average,[12],-10
same,ΔBPs average,[12],-18
same,ΔHR average,[12],-1
same,ΔLVEDP average,[12],0
same,Δdp/dt average,[12],-125
same,ΔBPd average,[13],-15
same,ΔBPs average,[13],-25
same,ΔHR average,[13],-1
same,ΔLVEDP average,[13],-1
same,Δdp/dt average,[13],-225
same,ΔBPd average,[14],-19
same,ΔBPs average,[14],-33
same,ΔHR average,[14],-4
same,ΔLVEDP average,[14],-2
same,Δdp/dt average,[14],350
same,ΔBPd average,[15],-15
same,ΔBPs average,[15],-26
same,ΔHR average,[15],-2
same,ΔLVEDP average,[15],-2
same,Δdp/dt average,[15],-275
same,Δdp/dt,"1st administration, 0.75 mg/kg i.d., 5 min",0
same,ΔBPd,[16],-5 and 0
same,ΔBPs,[16],-5 and -10 and 0
same,ΔHR,[16],0 and -5
same,ΔLVEDP,[16],0 and -1
same,Δdp/dt,"1st administration, 0.75 mg/kg i.d., 10 min",-100
same,ΔBPd,[17],-10 and -15
same,ΔBPs,[17],-15 and -20
same,ΔHR,[17],0 and -5
same,ΔLVEDP,[17],-2 and 0 and -3
same,ΔBPd,[18],-15 and -20
same,ΔBPs,[18],-25 and -20 and -35
same,ΔHR,[18],0 and -5
same,ΔLVEDP,[18],-3 and -2 and 1
same,Δdp/dt,[18],-100 and -200
same,ΔBPd,[19],-20 and -15 and -25
same,ΔBPs,[19],-30 and -20 and -40
same,ΔHR,[19],-5 and 0
same,ΔLVEDP,[19],-4 and -2 and 1
same,Δdp/dt,[19],-100 and -200
same,ΔBPd,[20],-20 and -25 and -10
same,ΔBPs,[20],-30 and -35 and -15 and -50
same,ΔHR,[20],-10 and -5
same,ΔLVEDP,[20],-3 and -2 and -4
same,Δdp/dt,[20],-200 and -300 and 0
same,ΔBPd,[21],-20 and -25 and -10
same,ΔBPs,[21],-30 and -35 and -15 and -45
same,ΔHR,[21],-15 and 5
same,ΔLVEDP,[21],-2 and -6 and -4
same,Δdp/dt,[21],-200 and -300
same,ΔBPd,[22],-20 and -5 and -15
same,ΔBPs,[22],-25 and -30 and -10
same,ΔHR,[22],-10 and -15 and 10
same,ΔLVEDP,[22],-3 and -2 and -7 and -4
same,Δdp/dt,[22],-200 and -300 and -100 and 0
same,ΔBPd,[23],-10 and -20 and 0
same,ΔBPs,[23],-15 and -20 and 0
same,ΔHR,[23],-5 and -10 and 0 and 15
same,ΔLVEDP,[23],-4 and -3 and -7
same,Δdp/dt,[23],-100 and 0 and 300
same,ΔBPd,[24],-5
same,ΔHR,[24],0
same,ΔBPs,[25],-5 and -10
same,ΔLVEDP,[25],0 and 1
same,Δdp/dt,[25],0 and -100
same,ΔHR,[26],0
same,ΔLVEDP,[26],0
same,ΔBPd,[27],-10 and -5
same,ΔBPs,[27],-15 and -5 and -10
same,Δdp/dt,[27],0 and -100 and -200
same,ΔBPd,[28],-15 and -10 and -5
same,ΔBPs,[28],-20 and -15
same,ΔHR,[28],-5 and 0
same,ΔLVEDP,[28],-1 and 2 and 0
same,Δdp/dt,[28],-100 and 0 and -300
same,ΔBPd,[29],-15 and -10 and -25
same,ΔBPs,[29],-25 and -20 and -35
same,ΔHR,[29],0 and -5
same,ΔLVEDP,[29],-1 and 0 and -2
same,Δdp/dt,[29],-100 and -600
same,ΔBPd,[30],-15 and -10 and -35
same,ΔBPs,[30],-30 and -20 and -50
same,ΔHR,[30],-5 and -10 and 0
same,ΔLVEDP,[30],-1 and -3
same,Δdp/dt,[30],-100 and -200 and -900
same,ΔBPd,[31],-10 and -15 and -25
same,ΔBPs,[31],-20 and -30 and -35
same,ΔHR,[31],0 and -15 and 5
same,ΔLVEDP,[31],-1 and -2 and -3
same,Δdp/dt,[31],-100 and -200 and -600
